This is an account of results in PMC5454592, “Pharmacological and Toxicological Properties of the Potent Oral γ-Secretase Modulator BPN-15606” (The Journal of Pharmacology and Experimental Therapeutics, 2017).

Data set [1] in a line: PK in nonhuman primates (i.v./po). It is filed as in vivo. Particulars: male, cynomolgus monkey, plasma; cynomolgus monkeys; 2 mg/kg po vs 1 mg/kg i.v. How it is done: Male non-naive cynomolgus monkeys (NHP) were administered BPN-15606 as a single nasogastric (po; 2 mg/kg) or i.v. (1 mg/kg) dose to assess oral bioavailability. Whole-blood samples were collected at specific time points and processed to plasma. Study in-life was conducted at Charles River Laboratories (Reno, NV). Pharmacokinetic (PK) plasma samples were shipped to SRI International for determination of drug concentrations. Samples were analyzed at SRI International using the bioanalytical method described above and validated for NHP plasma, and the LLOQ was 1 ng/ml. Data were subjected to noncompartmental analysis using WinNonlin Phoenix Model 200 (for extravascular administration) or Model 201 (for i.v. bolus administration) and the sparse sampling feature; a uniform weighting factor was applied to each data set. Time to maximum plasma concentration (Tmax) and maximum plasma concentration (Cmax) values were determined directly from the data. Area under the plasma concentration–time curve to the last time point (AUClast) values were calculated using the log/linear trapezoidal (i.v. dose) or linear up/log down trapezoidal (po dose). Values were calculated using the plasma data from composite groups. The dose administered was input to the program as mg/kg, and as a result no additional corrections for individual body weights of the animals were necessary. […]

Data set [2] in a line: Repeat-dose (9-day) efficacy study in rats. It is filed as in vivo, Sprague–Dawley rats. The following applies: male, Sprague-Dawley, rat, in vivo. As for the experimental part: (§1) Male C57BL/6J mice (n = 10/dose level) and male Sprague–Dawley rats (n = 14/dose level) were administered either vehicle (80% polyethylene glycol 400 v/v; 20% sterile water v/v and 0.1% Tween 20 v/v) or BPN-15606 (10, 25, and 50 mg/kg) once daily po for 7 consecutive days (mice) or 5, 25, and 50 mg/kg once daily po for 9 consecutive days (rats). […] Animals were sacrificed 4 hours following the dosing on day 7 of the 7-day oral treatment course (mice) and on day 9 of the 9-day oral treatment course (rats). Plasma and brain extracts were prepared (mice and rats); CSF was aspirated from the cisterna magnum with minimal to no blood contamination (rats only); and tissues were frozen at −70°C. Aβ peptides were quantitated in brain extracts and plasma (mice) or CSF and plasma (rats), as described previously, using Meso Scale multiplex kits and the Meso Scale Sector Imager 6000 ([Kounnas et al., 2010]). Statistical analysis was performed using GraphPad Prism software, and results are expressed as mean ± S.E.M. Analysis of variance was used to detect a significant effect. Drug levels of BPN-15606 were measured in plasma and brain extracts using the bioanalytical methods detailed above.

Another data set relates to Aβ42 and Aβ40 levels. The experiment in a line: Repeat-dose (9-day) efficacy study in rats. It is filed as in vivo, Sprague–Dawley rats. How it is done: as §1
Data set [3] is described as follows: in vivo. Particulars: rat. An excerpt: The objectives of this toxicity study were to determine maximum tolerated dose (MTD), characterize the potential toxicity, and calculate toxicokinetic parameters of BPN-15606 in adult male Sprague–Dawley rats (8–10 weeks of age) following daily po dose administration for 7 consecutive days, and to evaluate its potential to damage chromosomes or cause mitotic spindle abnormalities in vivo, as measured by the incidence of micronucleus formation in RNA-containing erythrocytes (bone marrow micronucleus assay). An overview of the study design is presented in Supplemental Table 8. Male rats were administered BPN-15606 po for 7 consecutive days at 30, 100, or 300 mg/kg (groups 2, 3, and 4). A control group (group 1) was given vehicle, 15% Labrasol/85% sterile water, at an equivalent dose volume (10 ml/kg). A 375 mg/kg dose (group 5) was included for determination of day 1 plasma drug levels. Clinical observations were recorded twice daily.
All rats in groups 1, 2, and 3 (0, 30, and 100 mg/kg, respectively) survived until their scheduled day 8 sacrifice, and all tissues specified for histologic evaluation were collected. None of the group 4 (300 mg/kg) animals survived the 7-day dosing period: three were sacrificed in moribund condition, and two were found dead. Necropsy examinations were performed on all rats, but, for group 4 animals, tissues for histopathologic examination were collected only from those rats that were sacrificed in moribund condition. Histopathology assessment was conducted on all tissues collected from all animals in groups 1 and 3, and all tissues collected from group 4 animals euthanized moribund. From group 2 rats, the following tissues were examined histopathologically: duodenum; jejunum; ileum; liver; lung; pancreas; spleen; stomach; and thymus, which were evaluated based on findings at the higher dose levels. When present, grossly altered tissues were examined histopathologically from all group 1, 2, and 3 rats, and from moribund sacrifice group 4 rats. Microscopic data were recorded, and a four-step grading system (minimal, mild, moderate, and marked) was used to define gradable changes. Terminology for data capture was consistent with International Harmonization of Nomenclature and Diagnostic Criteria as promulgated by the Society of Toxicologic Pathology.

Data set [4] can be described thus: in vivo. Particulars: both sexes, cynomolgus monkey, po, repeat dose.
Another data set addresses γ-secretase (Homo sapiens, UniProt P49768). The experiment in a line: SHSY5Y-APP cell-based MSD Aβ triplex screening assay. Also on record: endogenous in cells; host or cells: human SH-SY5Y neuroblastoma cells stably overexpressing human APP751 wild-type. How it is done: All Aβ assays, including the anti-Aβ immunoprecipitation/matrix-assisted laser desorption/ionization time of flight, were carried out as described previously ([Wagner et al., 2014]).

Structures are written as SMILES. A value given as a limit tells only on which side of the number the result lay.

`COc1nc(-c2cc(C)c(N[C@@H](C)c3ccc(F)cc3)nn2)ccc1-n1cnc(C)c1` [BPN-15606, (S)-N-(1-(4-fluorophenyl)ethyl)-6-(6-methoxy-5-(4-methyl-1H-imidazol-1-yl)pyridin-2-yl)-4-methylpyridazin-3-amine] registered a bioavailability in data set [1] of 30.8%. In addition, the NOAEL at 9 days in data set [2] amounted to 50 mg/kg. In addition, the “safety margin based on dose” value in the data set on Aβ42 and Aβ40 levels (rat, NOAEL 50 mg/kg vs lowest efficacious dose 5 mg/kg) was not below 10 fold. Further, the “lowering of CSF Aβ42 levels” value with Aβ42 and Aβ40 levels (rats, 5 mg/kg) is listed as approximately 40%. Besides, in the data set with Aβ42 and Aβ40 levels (rats, 25 mg/kg), the “lowering of CSF Aβ42 levels” value is on record as 70–75% and the “lowering of plasma Aβ42” value was more than 90%. Further, in the data set on Aβ42 and Aβ40 levels (rats, 5, 25, 50 mg/kg po daily for 9 days), the clinical observations result is reported as “all animals appeared normal throughout the study”. Besides, in the data set “in vivo [3]” (male, Sprague-Dawley), the MTD at 7 days was approximately 100 mg/kg. Also, the mortality entry in “in vivo [3]” (male, Sprague-Dawley, 300 mg/kg, 7 days) is “either found dead or sacrificed in moribund condition on day 3 or 4”. In “in vivo [3]” (male, Sprague-Dawley, 7 days), the NOEL is on record as not below 30 mg/kg. This compound displayed an MTD at 7 days in the data set “in vivo [3]” (male, Sprague-Dawley, po) of approximately 100 mg/kg/day. Further, the “no-observed-effect level (NOEL)” value in the data set “in vivo [3]” (male, Sprague-Dawley, po, 7 days) turned out to be 30 mg/kg/day. Besides, in the data set “in vivo [3]” (100 mg/kg), the “absolute number and percent of reticulocytes, of the control values” was “about 20%”; the “decrease in mean corpuscular hemoglobin” value is recorded as 6.9%; the “increase in RBC” value came to 10.5%; the increase in hemoglobin is reported as 10.9%. In addition, the liver histopathology entry in the data set “in vivo [3]” (300 mg/kg) was “Hepatocyte basophilia, hypertrophy, and lipidosis”. Further, in “in vivo [3]” (po, 30 mg/kg), the clinical observations result is listed as “appeared normal throughout the treatment period”. The compound further yielded an MTD at 6 days in “in vivo [4]” of less than 300 mg/kg/day. In addition, the AβTotal entry on γ-secretase (SHSY5Y-APP cells) is “No change”. For the same compound, the IC50 on γ-secretase (human SHSY5Y neuroblastoma cells stably overexpressing human APP751 wild-type, read-out: Aβ42 IC50) came to 7 nM.
